Literature values as cited in patent US10590413B2, “Chiral control” (WAVE LIFE SCIENCES LTD., priority 2012, dated 2020).
Read-outs that look alike come from different tables or passages of the source. [Rp] = phosphorothioate linkage, Rp; [5mC] = 5-methylcytosine

Experiments:
[1] = system: human PBMC; conditions: cited from earlier work
[2] = system: Murine IL-6 production and B cell activation; conditions: cited from earlier work; for IL-6 (pg/ml) CH12.LX: CH12.LX cells; for IgM: unstimulated culture 547 ± 82 ng/ml; for SI (stimulation index, [3H] uridine uptake, fold increase from unstimulated control): cells stimulated with 20 μM CpG O-ODN; for SI (stimulation index, [3H] uridine uptake, fold increase from unstimulated control) / SI (stimulation index, [3H] uridine uptake): mean ± SD of triplicates; for SI (stimulation index, [3H] uridine uptake): fold increase from unstimulated control, 20 μM CpG O-ODN; for IL-6 (pg/ml) SPLENIC B CELL: splenic B cells
[3] = system: Mouse B Cells; conditions: mean and std. dev. of at least 3 experiments, compared to wells with no added ODN, cited from earlier work
[4] = ODN 12 μg/ml, 4 hr, 10% autologous serum, level above wells with no ODN, ELISA
[5] = ODN 12 μg/ml, 24 hr, 10% autologous serum, level above wells with no ODN, ELISA
[6] = unstimulated control ≤10 pg/ml, US 6,239,116 Table 2

Substance | Stimulation Index, 3H Uridine ([3]; US 6,239,116 Table 1) | Stimulation Index, IgM Production ([3]; US 6,239,116 Table 1) | Stimulation Index, 3H Uridine [3] | other results
1639 (DNA TCCATAACGTTCCTGATGCT; chemistry not given here) [Oligonucleotide 1639] | – | – | – | TNF-α [1, 4]: 220 pg/mL; GM-CSF [1, 5]: 40 pg/mL; IFN-γ [1, 5]: 15.6 pg/mL; IL-6 [1, 5]: 625 pg/mL; IL-12 [1, 5]: 220 pg/mL; GM-CSF [1]: 40; IFN-γ [1]: 15.6; IL-6 [1]: 625; IL-12 [1]: 60; TNF-α [1]: 220; IL-6 (pg/ml) CH12.LX [2]: 1827 ± 83 pg/mL; IL-6 (pg/ml) CH12.LX [2, 6]: 1827 ± 83 pg/mL; IgM ([2]; ELISA): 9489 ± 103 ng/mL; SI (stimulation index, [3H] uridine uptake, fold increase from unstimulated control) [2]: 11.5 ± 0.4; SI (stimulation index, [3H] uridine uptake) [2]: 11.5 ± 0.4; IgM ([2]; measured by ELISA): 9439 ± 103 ng/mL; IL-6 (pg/ml) SPLENIC B CELL [2]: 2012 ± 132 pg/mL; IL-6 (pg/ml) SPLENIC B CELL [2, 6]: 2012 ± 132 pg/mL
1634 (DNA TCCATGTCGCTCCTGATGCT; chemistry not given here) [Oligonucleotide 1634] | – | – | – | TNF-α [1, 4]: 400 pg/mL; GM-CSF [1, 5]: 85 pg/mL; IFN-γ [1, 5]: 40 pg/mL; IL-6 [1, 5]: 300 pg/mL; IL-12 [1, 5]: 400 pg/mL; GM-CSF [1]: 85; IFN-γ [1]: 40; IL-6 [1]: 300; IL-12 [1]: 200; TNF-α [1]: 400; IL-6 (pg/ml) CH12.LX [2]: 1049 ± 223 pg/mL; IL-6 (pg/ml) CH12.LX [2, 6]: 1049 ± 223 pg/mL; SI (stimulation index, [3H] uridine uptake, fold increase from unstimulated control) [2]: 9.2 ± 0.9; SI (stimulation index, [3H] uridine uptake) [2]: 9.2 ± 0.9; IgM ([2]; measured by ELISA): 6256 ± 261 ng/mL; IL-6 (pg/ml) SPLENIC B CELL [2]: 1671 ± 175 pg/mL; IL-6 (pg/ml) SPLENIC B CELL [2, 6]: 1671 ± 175 pg/mL
3Me (DNA TCCATGTCGGTCCTGCTGAT; chemistry not given here) [Oligonucleotide 3Me] | 3.6 ± 0.2 | 14.2 ± 5.2 | 3.6 ± 0.2 | –
1c (DNA GCTAGACGTTAGCGT; chemistry not fully specified) [Oligonucleotide 1c] | 10.3 ± 4.4 | 9.5 ± 1.8 | 10.3 ± 4.4 | –
4f (DNA CCAACGTT; chemistry not fully specified) [Oligonucleotide 4f] | 3.9 ± 1.4 | – | 3.9 ± 1.4 | –
2d (DNA ATCGACTCTCGAGCGTTCTC; DNA, [5mC] at 18, backbone not given here) [Oligonucleotide 2d] | 7.4 ± 1.4 | 27.7 ± 5.4 | 7.4 ± 1.4 | –
4e (DNA CAACGTT; chemistry not fully specified) [Oligonucleotide 4e] | 1.3 ± 0.2 | 1.1 ± 0.5 | 1.3 ± 0.2 | –
3Db (DNA GAGAACGCTCGACCTTCGAT; chemistry not fully specified) [Oligonucleotide 3Db] | 10.1 ± 2.8 | 25.4 ± 0.8 | 10.1 ± 2.8 | –
3Dg (DNA GAGAACGCTCCAGCACTGAT; chemistry not fully specified) [Oligonucleotide 3Dg] | 6.1 ± 1.5 | 18.6 ± 1.5 | 6.1 ± 1.5 | –
3Dc (DNA GAGCAAGCTGGACCTTCCAT; chemistry not fully specified) [Oligonucleotide 3Dc] | 1.0 ± 0.1 | 1.2 ± 0.5 | 1.0 ± 0.1 | –
4b (DNA TCAGCGCT; chemistry not fully specified) [Oligonucleotide 4b] | 4.5 ± 0.2 | 9.6 ± 3.4 | 4.5 ± 0.2 | –
4c (DNA TCATCGAT; chemistry not given here) [Oligonucleotide 4c] | 2.7 ± 1.0 | – | 2.7 ± 1.0 | –
1d (DNA GCATGACGTTGAGCT; DNA, backbone not given here; further chemistry not fully specified) [Oligonucleotide 1d] | 13.0 ± 2.3 | 18.3 ± 7.5 | 13.0 ± 2.3 | –
4d (DNA TCTTCGAA; chemistry not fully specified) [Oligonucleotide 4d] | 1.3 ± 0.2 | – | 1.3 ± 0.2 | –
1b (DNA GCTAGACGTTAGCGT; Z modified cytosine, further chemistry not given here) [Oligonucleotide 1b] | 1.2 ± 0.1 | 1.8 ± 0.0 | 1.2 ± 0.1 | –
3Df (DNA GAGAACGATGGACCTTCCAT; chemistry not fully specified) [Oligonucleotide 3Df] | 1.6 ± 0.1 | 7.7 ± 0.4 | 1.6 ± 0.1 | –
All-(Rp)-d[GsCsCsTsCsAsGsTsCsTsGsCsTsTsCsGsCsAsCsC] (DNA GCCTCAGTCTGCTTCGCACC; DNA, all [Rp], methylation of C not given here) [Oligonucleotide 101] | 2.9 ± 0.2 | 13.6 ± 2.0 | 2.9 ± 0.2 | –
4g (DNA AACGTTCT; chemistry not given here) [Oligonucleotide 4g] | 1.4 ± 0.3 | – | 1.4 ± 0.3 | –
3Ma (DNA TCCATGCTGGTCCTGATGCT; chemistry not fully specified) [Oligonucleotide 3Ma] | 0.9 ± 0.1 | 1.8 ± 0.5 | 0.9 ± 0.1 | –
4h (DNA TCAACGTC; chemistry not fully specified) [Oligonucleotide 4h] | 1.2 ± 0.2 | – | 1.2 ± 0.2 | –
2c (DNA ATCGACTCTCGAGCGTTCTC; chemistry not fully specified) [Oligonucleotide 2c] | 3.1 ± 0.6 | 7.3 ± 1.4 | 3.1 ± 0.6 | –
3Mc (DNA TCCATGTCGGTCCTGATGCT; Z modified cytosine, further chemistry not given here) [Oligonucleotide 3Mc] | 5.4 ± 1.5 | 8.5 ± 2.6 | 5.4 ± 1.5 | –
3D (DNA GAGAACGCTGGACCTTCCAT; chemistry not fully specified) [Oligonucleotide 3D] | 4.9 ± 0.5 | 19.9 ± 3.6 | 4.9 ± 0.5 | –
3Md (DNA TCCATGACGTTCCTGATGCT; chemistry not given here) [Oligonucleotide 3Md] | 17.2 ± 9.4 | – | 17.2 ± 9.4 | –
